# Assay results: paper PMC6437697 (Journal of Medicinal Chemistry, 2019)
# Tests used:
# Test in all cases: KINOMEscan
# Assay type in all cases: binding
# Conditions in all cases: read-out: % control activity remaining
# AAK1 = target: T1, AAK1 (Homo sapiens, UniProt Q2M2I8)
# T1 construct: purchased Eurofins DiscoverX KINOMEscan
# ACVR2A = target: T2, ACVR2A (Homo sapiens, UniProt P27037)
# T2 construct: purchased Eurofins DiscoverX KINOMEscan
# BMPR2 = target: T3, BMPR2 (Homo sapiens, UniProt Q13873)
# T3 construct: purchased Eurofins DiscoverX KINOMEscan
# T3 sequence (Q13873 27-1038): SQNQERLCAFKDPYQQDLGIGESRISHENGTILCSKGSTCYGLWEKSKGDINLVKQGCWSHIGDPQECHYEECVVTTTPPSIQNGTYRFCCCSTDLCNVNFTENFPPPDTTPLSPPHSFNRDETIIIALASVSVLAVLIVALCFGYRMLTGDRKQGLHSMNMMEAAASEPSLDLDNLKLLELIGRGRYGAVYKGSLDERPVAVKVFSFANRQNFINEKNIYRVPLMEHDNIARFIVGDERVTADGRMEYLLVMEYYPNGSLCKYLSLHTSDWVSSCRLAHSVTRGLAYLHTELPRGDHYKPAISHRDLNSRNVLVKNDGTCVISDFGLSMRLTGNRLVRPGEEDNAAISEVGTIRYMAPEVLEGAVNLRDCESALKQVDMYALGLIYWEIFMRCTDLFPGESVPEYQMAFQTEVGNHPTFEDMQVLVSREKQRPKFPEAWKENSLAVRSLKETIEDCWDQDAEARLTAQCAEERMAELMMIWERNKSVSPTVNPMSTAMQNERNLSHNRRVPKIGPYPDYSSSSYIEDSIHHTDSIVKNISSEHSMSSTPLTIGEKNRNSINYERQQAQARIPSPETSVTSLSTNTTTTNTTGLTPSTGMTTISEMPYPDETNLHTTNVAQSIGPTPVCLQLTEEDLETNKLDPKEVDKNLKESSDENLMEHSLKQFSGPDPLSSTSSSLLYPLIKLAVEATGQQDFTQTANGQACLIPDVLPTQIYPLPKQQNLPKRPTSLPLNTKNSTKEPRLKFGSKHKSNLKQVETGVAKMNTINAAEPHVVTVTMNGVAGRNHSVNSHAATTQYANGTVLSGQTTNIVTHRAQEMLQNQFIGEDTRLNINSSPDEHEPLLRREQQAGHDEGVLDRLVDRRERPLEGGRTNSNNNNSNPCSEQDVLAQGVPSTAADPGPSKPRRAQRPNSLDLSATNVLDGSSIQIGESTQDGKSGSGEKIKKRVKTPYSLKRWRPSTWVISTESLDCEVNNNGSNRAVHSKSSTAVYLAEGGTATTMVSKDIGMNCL
# CAMKK1 = target: T4, CAMKK1 (Homo sapiens, UniProt Q8N5S9)
# T4 construct: purchased Eurofins DiscoverX KINOMEscan
# DCAMKL2 = target: T5, DCAMKL2 (Homo sapiens, UniProt Q8N568)
# T5 construct: purchased Eurofins DiscoverX KINOMEscan
# T5 sequence (Q8N568 1-766): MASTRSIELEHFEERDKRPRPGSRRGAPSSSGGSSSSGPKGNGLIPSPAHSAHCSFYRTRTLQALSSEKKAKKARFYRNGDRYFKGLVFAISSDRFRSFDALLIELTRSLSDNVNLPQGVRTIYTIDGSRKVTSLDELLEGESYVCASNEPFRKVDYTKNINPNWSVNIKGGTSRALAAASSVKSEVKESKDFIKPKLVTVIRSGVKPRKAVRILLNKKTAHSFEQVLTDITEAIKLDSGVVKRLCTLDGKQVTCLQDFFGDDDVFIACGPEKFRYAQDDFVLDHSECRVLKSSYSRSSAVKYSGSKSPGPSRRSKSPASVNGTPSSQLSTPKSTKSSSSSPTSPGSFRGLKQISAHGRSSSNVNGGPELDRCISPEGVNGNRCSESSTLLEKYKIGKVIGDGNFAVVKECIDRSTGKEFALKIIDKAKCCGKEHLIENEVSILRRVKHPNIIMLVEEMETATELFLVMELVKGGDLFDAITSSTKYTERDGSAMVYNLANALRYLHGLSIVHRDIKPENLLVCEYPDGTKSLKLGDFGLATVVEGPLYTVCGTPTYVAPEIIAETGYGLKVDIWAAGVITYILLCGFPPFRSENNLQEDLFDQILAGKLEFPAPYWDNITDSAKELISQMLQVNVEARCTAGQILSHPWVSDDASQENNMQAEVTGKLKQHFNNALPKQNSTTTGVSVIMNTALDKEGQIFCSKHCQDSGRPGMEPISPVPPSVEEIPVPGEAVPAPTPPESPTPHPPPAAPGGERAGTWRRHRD
# FAK = target: T6, FAK (Homo sapiens, UniProt Q05397)
# T6 construct: purchased Eurofins DiscoverX KINOMEscan
# LRRK2(G2019S) = target: T7, LRRK2(G2019S) (Homo sapiens, UniProt Q5S007, G2019S)
# T7 construct: purchased Eurofins DiscoverX KINOMEscan
# MET(M1250T) = target: T8, MET(M1250T) (Homo sapiens, UniProt P08581, M1250T)
# T8 construct: purchased Eurofins DiscoverX KINOMEscan
# MST3 = target: T9, MST3 (Homo sapiens, UniProt Q9Y6E0)
# T9 construct: purchased Eurofins DiscoverX KINOMEscan
# PKAC-beta = target: T10, PKAC-beta (Homo sapiens, UniProt P22694)
# T10 construct: purchased Eurofins DiscoverX KINOMEscan
# [1] = target: T11, RPS6KA5(Kin.Dom.1-N-terminal) (Homo sapiens, UniProt O75582)
# T11 construct: RPS6KA5(Kin.Dom.1-N-terminal); purchased Eurofins DiscoverX KINOMEscan
# [2] = target: T12, RSK4(Kin.Dom.2-C-terminal) (Homo sapiens, UniProt Q9UK32)
# T12 construct: RSK4(Kin.Dom.2-C-terminal); purchased Eurofins DiscoverX KINOMEscan
# T12 sequence (Q9UK32 426-683 limits assumed): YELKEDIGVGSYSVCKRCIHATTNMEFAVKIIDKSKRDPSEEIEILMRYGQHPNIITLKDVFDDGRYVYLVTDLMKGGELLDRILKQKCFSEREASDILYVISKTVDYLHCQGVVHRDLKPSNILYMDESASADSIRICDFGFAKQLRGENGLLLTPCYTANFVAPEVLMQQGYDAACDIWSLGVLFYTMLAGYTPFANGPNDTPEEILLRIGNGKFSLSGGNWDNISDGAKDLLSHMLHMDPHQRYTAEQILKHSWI
# TLK2 = target: T13, TLK2 (Homo sapiens, UniProt Q86UE8)
# T13 construct: purchased Eurofins DiscoverX KINOMEscan
# WEE1 = target: T14, WEE1 (Homo sapiens, UniProt P30291)
# T14 construct: purchased Eurofins DiscoverX KINOMEscan
# T11 sequence (O75582 49-318 limits assumed): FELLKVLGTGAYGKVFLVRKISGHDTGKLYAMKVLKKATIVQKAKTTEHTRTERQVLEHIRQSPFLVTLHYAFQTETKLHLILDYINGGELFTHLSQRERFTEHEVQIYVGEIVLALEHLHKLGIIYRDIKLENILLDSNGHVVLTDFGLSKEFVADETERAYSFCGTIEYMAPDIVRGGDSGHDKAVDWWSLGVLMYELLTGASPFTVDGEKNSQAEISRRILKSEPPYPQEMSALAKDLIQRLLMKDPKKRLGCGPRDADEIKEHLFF
# T6 sequence (Q05397 whole entry): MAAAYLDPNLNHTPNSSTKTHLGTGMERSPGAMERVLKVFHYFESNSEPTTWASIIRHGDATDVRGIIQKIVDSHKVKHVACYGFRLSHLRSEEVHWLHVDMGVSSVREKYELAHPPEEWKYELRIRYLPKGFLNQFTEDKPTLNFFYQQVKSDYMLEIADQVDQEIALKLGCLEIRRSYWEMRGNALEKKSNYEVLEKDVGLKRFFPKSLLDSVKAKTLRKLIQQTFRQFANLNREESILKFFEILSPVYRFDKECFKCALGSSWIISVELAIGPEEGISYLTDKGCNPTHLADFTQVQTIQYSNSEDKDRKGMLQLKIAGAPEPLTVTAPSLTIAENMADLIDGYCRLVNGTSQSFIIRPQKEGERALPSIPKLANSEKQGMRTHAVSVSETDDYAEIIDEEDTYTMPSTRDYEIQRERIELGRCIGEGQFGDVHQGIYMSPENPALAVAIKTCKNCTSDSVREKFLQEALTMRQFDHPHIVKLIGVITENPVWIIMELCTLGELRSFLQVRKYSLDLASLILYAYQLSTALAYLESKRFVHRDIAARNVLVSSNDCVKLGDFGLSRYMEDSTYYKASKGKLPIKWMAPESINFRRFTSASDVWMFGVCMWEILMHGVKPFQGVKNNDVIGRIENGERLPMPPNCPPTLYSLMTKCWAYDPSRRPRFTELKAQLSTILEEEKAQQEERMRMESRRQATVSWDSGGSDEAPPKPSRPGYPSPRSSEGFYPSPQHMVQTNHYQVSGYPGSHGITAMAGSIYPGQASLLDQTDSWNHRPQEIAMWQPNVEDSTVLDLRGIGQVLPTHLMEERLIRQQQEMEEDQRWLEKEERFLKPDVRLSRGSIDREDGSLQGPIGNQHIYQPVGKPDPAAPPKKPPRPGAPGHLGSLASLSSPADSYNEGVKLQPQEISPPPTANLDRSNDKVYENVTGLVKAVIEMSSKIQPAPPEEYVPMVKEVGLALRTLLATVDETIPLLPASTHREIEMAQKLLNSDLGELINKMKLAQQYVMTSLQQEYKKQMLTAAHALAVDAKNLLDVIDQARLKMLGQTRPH
# T2 sequence (P27037 20-513): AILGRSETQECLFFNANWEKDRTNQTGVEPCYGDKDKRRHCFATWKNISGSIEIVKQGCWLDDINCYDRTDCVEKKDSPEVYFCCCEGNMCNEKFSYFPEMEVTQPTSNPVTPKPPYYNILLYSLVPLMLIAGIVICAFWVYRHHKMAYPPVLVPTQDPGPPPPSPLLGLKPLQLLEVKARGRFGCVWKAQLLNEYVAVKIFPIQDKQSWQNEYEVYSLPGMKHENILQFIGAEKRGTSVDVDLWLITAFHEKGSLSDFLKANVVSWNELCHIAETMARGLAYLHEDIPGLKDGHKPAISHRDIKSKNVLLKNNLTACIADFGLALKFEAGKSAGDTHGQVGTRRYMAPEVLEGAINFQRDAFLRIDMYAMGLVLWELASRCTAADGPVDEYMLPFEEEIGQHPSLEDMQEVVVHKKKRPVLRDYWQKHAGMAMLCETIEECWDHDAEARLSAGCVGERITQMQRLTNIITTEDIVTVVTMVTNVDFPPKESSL
# T4 sequence (Q8N5S9 whole entry): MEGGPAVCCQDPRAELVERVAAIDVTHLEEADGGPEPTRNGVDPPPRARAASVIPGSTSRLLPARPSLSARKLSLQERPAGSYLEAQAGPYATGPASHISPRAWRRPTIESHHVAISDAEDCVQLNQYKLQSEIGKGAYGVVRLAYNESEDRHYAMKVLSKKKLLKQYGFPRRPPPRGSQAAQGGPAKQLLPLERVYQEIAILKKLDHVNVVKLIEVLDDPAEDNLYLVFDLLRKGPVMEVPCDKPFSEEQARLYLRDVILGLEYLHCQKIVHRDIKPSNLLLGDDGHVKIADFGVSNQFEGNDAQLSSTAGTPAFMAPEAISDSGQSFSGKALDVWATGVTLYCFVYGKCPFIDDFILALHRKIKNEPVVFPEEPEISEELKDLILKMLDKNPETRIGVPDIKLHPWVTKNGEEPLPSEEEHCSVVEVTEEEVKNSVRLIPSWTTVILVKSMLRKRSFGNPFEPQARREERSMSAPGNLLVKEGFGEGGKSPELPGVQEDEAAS
# T9 sequence (Q9Y6E0 whole entry): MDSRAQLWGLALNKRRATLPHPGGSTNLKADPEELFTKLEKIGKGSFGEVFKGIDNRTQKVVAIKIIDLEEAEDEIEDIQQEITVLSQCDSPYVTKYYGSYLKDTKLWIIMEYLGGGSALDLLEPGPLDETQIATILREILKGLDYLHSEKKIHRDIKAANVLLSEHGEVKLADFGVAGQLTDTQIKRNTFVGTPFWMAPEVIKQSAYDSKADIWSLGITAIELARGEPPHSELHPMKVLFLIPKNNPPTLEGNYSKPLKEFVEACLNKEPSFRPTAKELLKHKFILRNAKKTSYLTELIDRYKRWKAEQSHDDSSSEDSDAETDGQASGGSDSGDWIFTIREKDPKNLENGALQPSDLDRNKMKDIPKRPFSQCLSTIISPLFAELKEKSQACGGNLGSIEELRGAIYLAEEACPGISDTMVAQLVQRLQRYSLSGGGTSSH
# T8 sequence (P08581 25-1390 M1250T): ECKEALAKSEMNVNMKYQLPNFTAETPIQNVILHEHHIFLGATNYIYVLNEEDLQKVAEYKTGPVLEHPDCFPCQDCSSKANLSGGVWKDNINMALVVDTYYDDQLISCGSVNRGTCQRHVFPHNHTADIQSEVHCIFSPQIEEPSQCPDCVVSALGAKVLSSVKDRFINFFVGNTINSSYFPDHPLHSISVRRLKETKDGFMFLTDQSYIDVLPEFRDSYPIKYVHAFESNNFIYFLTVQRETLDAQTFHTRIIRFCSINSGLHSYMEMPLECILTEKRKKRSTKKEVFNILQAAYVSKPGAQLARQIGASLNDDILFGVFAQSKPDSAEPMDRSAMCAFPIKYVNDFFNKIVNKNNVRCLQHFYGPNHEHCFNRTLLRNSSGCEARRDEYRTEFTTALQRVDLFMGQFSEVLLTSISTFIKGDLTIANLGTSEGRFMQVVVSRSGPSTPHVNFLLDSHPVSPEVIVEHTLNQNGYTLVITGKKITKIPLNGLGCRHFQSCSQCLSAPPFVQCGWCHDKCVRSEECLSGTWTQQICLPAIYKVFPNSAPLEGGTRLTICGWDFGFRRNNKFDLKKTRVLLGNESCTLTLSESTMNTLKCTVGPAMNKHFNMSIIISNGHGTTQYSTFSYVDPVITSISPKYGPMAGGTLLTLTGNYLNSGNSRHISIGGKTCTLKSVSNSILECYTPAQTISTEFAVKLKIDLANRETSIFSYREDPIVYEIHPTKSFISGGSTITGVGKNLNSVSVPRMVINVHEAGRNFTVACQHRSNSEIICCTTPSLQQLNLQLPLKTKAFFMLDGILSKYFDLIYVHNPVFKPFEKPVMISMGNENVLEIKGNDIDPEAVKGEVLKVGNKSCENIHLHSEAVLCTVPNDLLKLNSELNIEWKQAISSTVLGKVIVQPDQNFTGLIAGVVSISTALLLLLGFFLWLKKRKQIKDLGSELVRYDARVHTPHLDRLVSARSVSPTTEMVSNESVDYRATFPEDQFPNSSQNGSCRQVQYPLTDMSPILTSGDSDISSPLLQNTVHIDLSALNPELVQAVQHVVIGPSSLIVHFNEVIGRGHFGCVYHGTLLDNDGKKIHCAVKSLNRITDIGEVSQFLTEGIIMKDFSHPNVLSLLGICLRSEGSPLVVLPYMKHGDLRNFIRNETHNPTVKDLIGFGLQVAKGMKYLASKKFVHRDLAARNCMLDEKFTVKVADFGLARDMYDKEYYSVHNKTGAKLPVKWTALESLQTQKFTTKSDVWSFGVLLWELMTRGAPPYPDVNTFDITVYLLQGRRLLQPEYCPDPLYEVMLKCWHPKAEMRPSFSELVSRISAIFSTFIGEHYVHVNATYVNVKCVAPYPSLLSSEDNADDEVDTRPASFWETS
# T13 sequence (Q86UE8 whole entry): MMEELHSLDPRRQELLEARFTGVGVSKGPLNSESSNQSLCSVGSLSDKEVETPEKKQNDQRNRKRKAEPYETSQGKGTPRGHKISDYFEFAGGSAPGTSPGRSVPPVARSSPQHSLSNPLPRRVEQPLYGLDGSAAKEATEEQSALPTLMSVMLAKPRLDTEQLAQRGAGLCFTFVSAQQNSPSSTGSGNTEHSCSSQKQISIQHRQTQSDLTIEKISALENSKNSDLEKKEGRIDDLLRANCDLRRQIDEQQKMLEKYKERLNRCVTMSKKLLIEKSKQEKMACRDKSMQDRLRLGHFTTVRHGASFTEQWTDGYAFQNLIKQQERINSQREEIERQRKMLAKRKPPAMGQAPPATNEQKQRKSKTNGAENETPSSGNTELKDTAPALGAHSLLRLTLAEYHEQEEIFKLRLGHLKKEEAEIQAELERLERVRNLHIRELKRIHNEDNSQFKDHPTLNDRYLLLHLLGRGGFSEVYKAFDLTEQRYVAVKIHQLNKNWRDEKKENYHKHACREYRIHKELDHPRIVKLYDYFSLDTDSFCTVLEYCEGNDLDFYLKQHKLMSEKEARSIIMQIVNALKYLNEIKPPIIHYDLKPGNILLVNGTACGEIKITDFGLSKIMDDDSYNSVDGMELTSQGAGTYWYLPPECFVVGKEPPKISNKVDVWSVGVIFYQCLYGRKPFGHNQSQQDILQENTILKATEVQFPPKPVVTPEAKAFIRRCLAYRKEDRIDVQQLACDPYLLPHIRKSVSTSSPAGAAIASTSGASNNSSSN
compound,measurement,setting,value
"Clc1cc(NCC2CC2)c2ncc(-c3ccc4[nH]ncc4c3)n2n1 [compound 2, 6-Chloro-N-(cyclopropylmethyl)-3-(1H-indazol-5-yl)imidazo[1,2-b]pyridazin-8-amine]",remaining binding at 1 µM,AAK1,39%
same,remaining binding at 1 µM,ACVR2A,100%
same,remaining binding at 1 µM,BMPR2,96%
same,remaining binding at 1 µM,CAMKK1,94%
same,remaining binding at 1 µM,DCAMKL2,95%
same,remaining binding at 1 µM,FAK,91%
same,remaining binding at 1 µM,LRRK2(G2019S),91%
same,remaining binding at 1 µM,MET(M1250T),89%
same,remaining binding at 1 µM,MST3,100%
same,remaining binding at 1 µM,PKAC-beta,86%
same,remaining binding at 1 µM,[1],100%
same,remaining binding at 1 µM,[2],92%
same,remaining binding at 1 µM,TLK2,98%
same,remaining binding at 1 µM,WEE1,100%
O=C(CN1CCOCC1)N[C@H]1CC[C@H](Nc2cc(Cl)nn3c(-c4ccc5[nH]ncc5c4)cnc23)CC1 [compound 26],remaining binding at 1 µM,AAK1,28%
same,remaining binding at 1 µM,ACVR2A,100%
same,remaining binding at 1 µM,BMPR2,100%
same,remaining binding at 1 µM,CAMKK1,52%
same,remaining binding at 1 µM,DCAMKL2,92%
same,remaining binding at 1 µM,FAK,100%
same,remaining binding at 1 µM,LRRK2(G2019S),76%
same,remaining binding at 1 µM,MET(M1250T),82%
same,remaining binding at 1 µM,MST3,91%
same,remaining binding at 1 µM,PKAC-beta,99%
same,remaining binding at 1 µM,[1],99%
same,remaining binding at 1 µM,[2],56%
same,remaining binding at 1 µM,TLK2,95%
same,remaining binding at 1 µM,WEE1,100%
"CN1CCC(CNc2cc(Cl)nn3c(-c4cc5nc(Nc6ccccc6)[nH]c5cc4F)cnc23)CC1 [compound 31, 6-Chloro-3-(6-fluoro-2-(phenylamino)-1H-benzo[d]imidazol-5-yl)-N-((1-methylpiperidin-4-yl)methyl)imidazo[1,2-b]pyridazin-8-amine]",remaining binding at 1 µM,AAK1,100%
same,remaining binding at 1 µM,ACVR2A,97%
same,remaining binding at 1 µM,BMPR2,91%
same,remaining binding at 1 µM,CAMKK1,98%
same,remaining binding at 1 µM,DCAMKL2,96%
same,remaining binding at 1 µM,FAK,97%
same,remaining binding at 1 µM,LRRK2(G2019S),88%
same,remaining binding at 1 µM,MET(M1250T),98%
same,remaining binding at 1 µM,MST3,92%
same,remaining binding at 1 µM,PKAC-beta,90%
same,remaining binding at 1 µM,[1],100%
same,remaining binding at 1 µM,[2],88%
same,remaining binding at 1 µM,TLK2,89%
same,remaining binding at 1 µM,WEE1,100%
